In ChEMBL document CHEMBL1201862, “PubChem BioAssay data set” (2004):
One block for each compound: values may come before it. The source made the active and inactive calls.

Assays:
[1] = reduction of Shn3 3'UTR-driven luciferase in osteoblasts – cell-based, Clone20 osteoblasts, firefly luciferase, cherry-picked, dose response (AID 624132); type: functional;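 further: firefly luciferase luminescence from reporter carrying the Shn3 3'UTR in osteoblasts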
[2] = biological target: Megakaryocyte-associated tyrosine-protein kinase (Homo sapiens, UniProt P42679); type: functional;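 further: affinity measured as one member of a kinase panel (Navigating the Kinome) against MATK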
[3] = biological target: RAC-gamma serine/threonine-protein kinase (Homo sapiens, UniProt Q9Y243); type: functional
[4] = biological target: Serine/threonine-protein kinase PLK4 (Homo sapiens, UniProt O00444); type: functional;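 further: PLK4 measured as one member of a kinome-wide kinase profiling panel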
[5] = biological target: Ribosomal protein S6 kinase beta-1 (Homo sapiens, UniProt P23443); type: functional;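 further: measured as one member of a kinome-wide profiling panel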
[6] = biological target: Testis-specific serine/threonine-protein kinase 2 (Homo sapiens, UniProt Q96PF2); type: functional;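 further: part of the Navigating the Kinome panel, target entry STK22B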
SRSF protein kinase 1 = SRSF protein kinase 1 (Homo sapiens, UniProt Q96SB4); type: functional;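 further: measured as one member of a kinome-wide kinase profiling panel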
[7] = biological target: Casein kinase II subunit alpha (Homo sapiens, UniProt P68400); type: functional
[8] = biological target: Serine/threonine-protein kinase PAK 1 (Homo sapiens, UniProt Q13153); type: functional
[9] = biological target: Mitogen-activated protein kinase 13 (Homo sapiens, UniProt O15264); type: functional
[10] = biological target: Mitogen-activated protein kinase kinase kinase 20 (Homo sapiens, UniProt Q9NYL2); type: functional
[11] = biological target: Proto-oncogene tyrosine-protein kinase Src (Homo sapiens, UniProt P12931); type: functional;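 further: SRC entry within a kinome-wide kinase profiling panel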
[12] = biological target: Mitogen-activated protein kinase 1 (Homo sapiens, UniProt P28482); type: functional
[13] = biological target: T1, Interleukin-1 receptor-associated kinase 4 (Homo sapiens, UniProt Q9NWZ3); type: functional
T1 sequence (Q9NWZ3 whole entry): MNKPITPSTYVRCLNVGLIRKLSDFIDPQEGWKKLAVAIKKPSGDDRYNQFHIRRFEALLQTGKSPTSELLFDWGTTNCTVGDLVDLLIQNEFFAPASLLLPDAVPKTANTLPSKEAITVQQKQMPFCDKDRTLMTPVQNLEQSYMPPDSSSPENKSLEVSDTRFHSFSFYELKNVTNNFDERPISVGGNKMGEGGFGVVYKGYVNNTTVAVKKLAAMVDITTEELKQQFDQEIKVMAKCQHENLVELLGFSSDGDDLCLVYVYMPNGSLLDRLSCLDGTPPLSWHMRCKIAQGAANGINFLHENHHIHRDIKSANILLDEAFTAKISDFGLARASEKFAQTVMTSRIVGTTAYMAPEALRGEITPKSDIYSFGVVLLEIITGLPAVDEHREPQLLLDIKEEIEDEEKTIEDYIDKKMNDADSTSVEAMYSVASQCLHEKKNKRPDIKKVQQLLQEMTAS

[14] = biological target: Cyclin-dependent kinase 19 (Homo sapiens, UniProt Q9BWU1); assay: Navigating the Kinome. Panel member name: CDC2L6; type: functional
[15] = biological target: Calcium/calmodulin-dependent protein kinase type 1 (Homo sapiens, UniProt Q14012); type: functional
[16] = biological target: Serine/threonine-protein kinase pim-2 (Homo sapiens, UniProt Q9P1W9); type: functional;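 further: value comes from a broad kinase panel profiling study in which PIM2 was one of the panel members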
[17] = biological target: Serine/threonine-protein kinase DCLK1 (Homo sapiens, UniProt O15075); type: functional;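 further: affinity for DCLK1 (listed as DCAMKL1) measured as one member of a kinome-wide kinase profiling panel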
[18] = biological target: Serine/threonine-protein kinase PLK1 (Homo sapiens, UniProt P53350); type: functional;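 further: PLK1 measured as one member of a kinome-wide profiling panel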
[19] = biological target: Receptor tyrosine-protein kinase erbB-4 (Homo sapiens, UniProt Q15303); type: functional;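 further: ERBB4 member of a kinome-wide kinase profiling panel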
[20] = biological target: T2, Histone-lysine N-methyltransferase NSD2 (Homo sapiens, UniProt O96028); type: biochemical
T2 sequence (O96028 whole entry): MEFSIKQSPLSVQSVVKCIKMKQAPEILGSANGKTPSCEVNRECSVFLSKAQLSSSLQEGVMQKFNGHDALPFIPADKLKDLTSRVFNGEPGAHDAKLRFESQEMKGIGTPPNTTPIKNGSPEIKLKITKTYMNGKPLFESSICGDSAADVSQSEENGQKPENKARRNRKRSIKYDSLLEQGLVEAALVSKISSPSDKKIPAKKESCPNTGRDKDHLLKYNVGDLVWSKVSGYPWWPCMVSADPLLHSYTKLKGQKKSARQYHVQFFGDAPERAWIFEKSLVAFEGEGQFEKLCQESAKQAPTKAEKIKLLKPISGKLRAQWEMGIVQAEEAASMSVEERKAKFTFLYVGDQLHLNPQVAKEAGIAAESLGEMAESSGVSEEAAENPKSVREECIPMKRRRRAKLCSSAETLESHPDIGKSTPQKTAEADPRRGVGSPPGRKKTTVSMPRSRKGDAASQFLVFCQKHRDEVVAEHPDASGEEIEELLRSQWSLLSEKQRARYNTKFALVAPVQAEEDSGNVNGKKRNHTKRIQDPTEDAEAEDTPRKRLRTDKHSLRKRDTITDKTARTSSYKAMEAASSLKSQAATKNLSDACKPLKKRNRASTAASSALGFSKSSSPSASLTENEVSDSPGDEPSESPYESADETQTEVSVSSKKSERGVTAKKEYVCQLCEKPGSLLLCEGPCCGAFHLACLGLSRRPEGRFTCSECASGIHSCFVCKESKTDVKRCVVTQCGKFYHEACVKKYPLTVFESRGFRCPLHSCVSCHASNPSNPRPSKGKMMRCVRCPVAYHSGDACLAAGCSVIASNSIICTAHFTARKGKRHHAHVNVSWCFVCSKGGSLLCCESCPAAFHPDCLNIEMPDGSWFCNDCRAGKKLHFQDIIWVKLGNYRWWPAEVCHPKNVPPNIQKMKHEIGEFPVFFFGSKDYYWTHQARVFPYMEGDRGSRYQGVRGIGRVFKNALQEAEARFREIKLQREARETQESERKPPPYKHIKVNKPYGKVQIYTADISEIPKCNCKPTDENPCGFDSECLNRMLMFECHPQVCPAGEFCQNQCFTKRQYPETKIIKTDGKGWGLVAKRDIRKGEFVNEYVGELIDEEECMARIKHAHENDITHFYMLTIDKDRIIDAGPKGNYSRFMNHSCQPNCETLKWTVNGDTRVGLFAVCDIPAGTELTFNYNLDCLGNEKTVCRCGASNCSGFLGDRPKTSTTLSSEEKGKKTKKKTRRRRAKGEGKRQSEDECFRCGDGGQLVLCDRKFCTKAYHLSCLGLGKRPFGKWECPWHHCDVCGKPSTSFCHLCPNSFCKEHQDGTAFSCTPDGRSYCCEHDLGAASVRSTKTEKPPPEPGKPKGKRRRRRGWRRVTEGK

Megakaryocyte-associated tyrosine-protein kinase, sequence (P42679 whole entry): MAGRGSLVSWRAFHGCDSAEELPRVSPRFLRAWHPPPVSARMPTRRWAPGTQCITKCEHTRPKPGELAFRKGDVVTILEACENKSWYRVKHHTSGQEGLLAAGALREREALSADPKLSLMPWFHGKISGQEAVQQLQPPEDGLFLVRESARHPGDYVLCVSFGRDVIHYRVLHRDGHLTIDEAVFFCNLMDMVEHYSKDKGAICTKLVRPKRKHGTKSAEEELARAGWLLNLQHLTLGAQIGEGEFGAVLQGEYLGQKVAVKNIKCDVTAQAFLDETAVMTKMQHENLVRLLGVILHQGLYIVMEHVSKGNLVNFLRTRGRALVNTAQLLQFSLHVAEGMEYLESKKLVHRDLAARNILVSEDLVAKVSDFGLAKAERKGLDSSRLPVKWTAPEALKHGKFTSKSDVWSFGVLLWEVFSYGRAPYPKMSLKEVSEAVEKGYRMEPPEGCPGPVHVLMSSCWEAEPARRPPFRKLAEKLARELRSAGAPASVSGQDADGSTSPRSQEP
Ribosomal protein S6 kinase beta-1, sequence (P23443 whole entry): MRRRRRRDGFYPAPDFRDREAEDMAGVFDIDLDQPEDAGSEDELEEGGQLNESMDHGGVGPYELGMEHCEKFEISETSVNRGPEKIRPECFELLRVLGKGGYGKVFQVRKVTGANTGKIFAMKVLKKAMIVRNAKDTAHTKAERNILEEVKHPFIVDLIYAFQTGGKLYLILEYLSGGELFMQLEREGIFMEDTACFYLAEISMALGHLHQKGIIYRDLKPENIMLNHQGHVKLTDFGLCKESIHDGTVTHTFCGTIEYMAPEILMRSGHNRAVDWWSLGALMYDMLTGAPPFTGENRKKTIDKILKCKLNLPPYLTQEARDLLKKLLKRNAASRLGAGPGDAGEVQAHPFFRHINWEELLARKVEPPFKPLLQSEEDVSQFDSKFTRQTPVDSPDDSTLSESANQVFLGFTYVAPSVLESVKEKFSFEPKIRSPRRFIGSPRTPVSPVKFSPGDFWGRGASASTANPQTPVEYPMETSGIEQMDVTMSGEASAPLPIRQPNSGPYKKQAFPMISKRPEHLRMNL
RAC-gamma serine/threonine-protein kinase, sequence (Q9Y243 whole entry): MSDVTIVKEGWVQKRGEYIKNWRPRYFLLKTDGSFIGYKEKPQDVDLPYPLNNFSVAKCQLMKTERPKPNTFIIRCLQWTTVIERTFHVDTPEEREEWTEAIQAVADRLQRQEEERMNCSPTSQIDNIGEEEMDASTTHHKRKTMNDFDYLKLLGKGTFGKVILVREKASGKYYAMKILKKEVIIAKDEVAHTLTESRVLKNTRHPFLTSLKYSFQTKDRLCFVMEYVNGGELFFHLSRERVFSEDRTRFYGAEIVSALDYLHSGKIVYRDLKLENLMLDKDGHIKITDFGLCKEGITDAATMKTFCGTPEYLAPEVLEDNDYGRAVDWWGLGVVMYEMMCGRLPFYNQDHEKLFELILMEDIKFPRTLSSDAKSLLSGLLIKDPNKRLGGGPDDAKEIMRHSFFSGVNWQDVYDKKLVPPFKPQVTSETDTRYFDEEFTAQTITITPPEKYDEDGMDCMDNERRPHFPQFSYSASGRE
Cyclin-dependent kinase 19, sequence (Q9BWU1 whole entry): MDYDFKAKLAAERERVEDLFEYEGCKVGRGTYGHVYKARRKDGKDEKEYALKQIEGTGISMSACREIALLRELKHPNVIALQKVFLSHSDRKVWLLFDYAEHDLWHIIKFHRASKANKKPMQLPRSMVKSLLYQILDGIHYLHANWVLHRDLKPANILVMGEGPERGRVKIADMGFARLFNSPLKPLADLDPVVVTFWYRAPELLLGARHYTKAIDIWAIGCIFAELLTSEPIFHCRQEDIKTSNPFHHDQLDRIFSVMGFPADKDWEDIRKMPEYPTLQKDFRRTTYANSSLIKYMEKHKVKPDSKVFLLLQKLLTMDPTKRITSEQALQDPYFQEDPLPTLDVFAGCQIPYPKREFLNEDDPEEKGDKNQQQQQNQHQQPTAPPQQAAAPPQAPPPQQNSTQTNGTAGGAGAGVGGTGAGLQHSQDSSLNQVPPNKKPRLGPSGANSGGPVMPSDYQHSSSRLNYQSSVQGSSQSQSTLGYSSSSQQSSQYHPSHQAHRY
SRSF protein kinase 1, sequence (Q96SB4 whole entry): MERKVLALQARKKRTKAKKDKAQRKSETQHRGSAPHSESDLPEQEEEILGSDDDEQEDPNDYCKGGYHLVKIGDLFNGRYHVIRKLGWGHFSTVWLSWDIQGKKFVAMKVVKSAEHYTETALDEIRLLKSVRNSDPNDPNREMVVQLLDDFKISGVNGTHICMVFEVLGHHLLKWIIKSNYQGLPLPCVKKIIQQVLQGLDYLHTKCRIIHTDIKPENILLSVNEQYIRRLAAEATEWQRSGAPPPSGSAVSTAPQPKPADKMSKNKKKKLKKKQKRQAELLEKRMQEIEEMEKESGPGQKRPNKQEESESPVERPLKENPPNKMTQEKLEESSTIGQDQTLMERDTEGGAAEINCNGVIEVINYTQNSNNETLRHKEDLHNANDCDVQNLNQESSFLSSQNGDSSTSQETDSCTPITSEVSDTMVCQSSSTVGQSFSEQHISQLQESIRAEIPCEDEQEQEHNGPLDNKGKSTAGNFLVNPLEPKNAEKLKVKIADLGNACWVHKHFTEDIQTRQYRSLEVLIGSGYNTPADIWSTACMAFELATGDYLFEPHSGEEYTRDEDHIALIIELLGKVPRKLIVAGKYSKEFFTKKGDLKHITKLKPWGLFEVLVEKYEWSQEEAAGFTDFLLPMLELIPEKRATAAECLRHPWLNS
Mitogen-activated protein kinase 1, sequence (P28482 whole entry): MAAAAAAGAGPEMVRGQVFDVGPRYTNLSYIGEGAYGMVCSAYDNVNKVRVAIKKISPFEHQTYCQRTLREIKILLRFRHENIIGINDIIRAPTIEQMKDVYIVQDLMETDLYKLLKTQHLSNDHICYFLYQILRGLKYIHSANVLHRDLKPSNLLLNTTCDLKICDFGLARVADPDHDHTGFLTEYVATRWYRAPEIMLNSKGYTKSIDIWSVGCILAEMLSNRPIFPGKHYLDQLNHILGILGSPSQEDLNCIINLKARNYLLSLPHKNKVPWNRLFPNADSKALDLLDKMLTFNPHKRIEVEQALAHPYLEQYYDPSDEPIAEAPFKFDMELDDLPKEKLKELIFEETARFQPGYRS
Receptor tyrosine-protein kinase erbB-4, sequence (Q15303 whole entry): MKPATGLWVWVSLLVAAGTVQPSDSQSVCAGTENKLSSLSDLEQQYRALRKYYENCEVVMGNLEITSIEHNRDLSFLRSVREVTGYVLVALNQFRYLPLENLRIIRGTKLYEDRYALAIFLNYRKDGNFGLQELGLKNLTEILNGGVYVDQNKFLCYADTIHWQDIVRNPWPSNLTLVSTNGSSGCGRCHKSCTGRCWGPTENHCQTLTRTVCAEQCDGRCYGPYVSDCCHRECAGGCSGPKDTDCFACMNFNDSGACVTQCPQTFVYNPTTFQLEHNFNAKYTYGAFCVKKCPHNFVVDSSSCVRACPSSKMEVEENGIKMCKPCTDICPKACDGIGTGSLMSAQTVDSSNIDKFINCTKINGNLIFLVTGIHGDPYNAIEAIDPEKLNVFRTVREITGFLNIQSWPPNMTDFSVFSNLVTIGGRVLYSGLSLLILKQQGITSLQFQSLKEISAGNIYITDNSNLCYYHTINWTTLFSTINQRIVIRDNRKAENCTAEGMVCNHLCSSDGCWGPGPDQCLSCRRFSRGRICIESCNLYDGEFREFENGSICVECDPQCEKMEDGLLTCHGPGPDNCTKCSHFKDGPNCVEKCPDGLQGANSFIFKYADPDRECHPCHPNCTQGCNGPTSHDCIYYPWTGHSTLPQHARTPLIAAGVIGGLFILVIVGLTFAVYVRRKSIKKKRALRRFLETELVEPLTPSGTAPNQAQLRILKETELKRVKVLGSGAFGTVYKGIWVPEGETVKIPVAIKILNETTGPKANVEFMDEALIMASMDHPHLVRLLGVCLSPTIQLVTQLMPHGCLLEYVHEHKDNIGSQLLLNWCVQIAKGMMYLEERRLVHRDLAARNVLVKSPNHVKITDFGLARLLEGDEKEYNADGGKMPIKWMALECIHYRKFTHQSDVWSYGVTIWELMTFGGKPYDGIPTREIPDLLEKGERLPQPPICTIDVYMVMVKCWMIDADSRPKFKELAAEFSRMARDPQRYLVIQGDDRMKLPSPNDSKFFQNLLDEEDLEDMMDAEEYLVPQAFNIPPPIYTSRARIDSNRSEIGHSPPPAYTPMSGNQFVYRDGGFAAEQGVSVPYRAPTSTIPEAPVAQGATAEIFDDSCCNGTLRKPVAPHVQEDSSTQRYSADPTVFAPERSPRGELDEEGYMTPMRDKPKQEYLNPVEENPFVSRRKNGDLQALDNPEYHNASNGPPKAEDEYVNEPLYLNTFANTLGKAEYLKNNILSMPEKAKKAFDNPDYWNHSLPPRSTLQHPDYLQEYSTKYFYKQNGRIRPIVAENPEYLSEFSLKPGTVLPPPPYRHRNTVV
Serine/threonine-protein kinase PAK 1, sequence (Q13153 whole entry): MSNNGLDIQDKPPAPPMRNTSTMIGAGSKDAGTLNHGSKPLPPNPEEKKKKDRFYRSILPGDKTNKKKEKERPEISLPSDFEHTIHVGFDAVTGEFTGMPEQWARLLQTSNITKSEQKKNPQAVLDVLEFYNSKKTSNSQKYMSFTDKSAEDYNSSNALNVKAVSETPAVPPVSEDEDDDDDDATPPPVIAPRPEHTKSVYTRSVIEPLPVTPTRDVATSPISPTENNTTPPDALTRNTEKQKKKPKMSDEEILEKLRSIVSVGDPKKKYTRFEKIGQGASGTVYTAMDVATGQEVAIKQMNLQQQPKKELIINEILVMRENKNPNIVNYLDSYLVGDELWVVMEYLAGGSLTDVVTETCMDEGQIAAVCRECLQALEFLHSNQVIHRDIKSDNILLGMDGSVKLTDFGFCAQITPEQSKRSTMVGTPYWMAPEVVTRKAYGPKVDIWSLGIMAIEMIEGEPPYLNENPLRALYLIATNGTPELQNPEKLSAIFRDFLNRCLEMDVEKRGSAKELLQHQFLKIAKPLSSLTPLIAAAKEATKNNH

Compound: Cc1cc(NC(c2ccc(Cl)cc2)c2ccc3cccnc3c2O)no1 (stereo unspecified)
AC50 [1]: 1050 nM (active)

Ki [2]: 79.4 nM (active)
Ki [3]: 79.4 nM (active)
Ki [4]: 251 nM (active)
Ki [5]: > 6310 nM (inactive)
Ki [6]: 39.8 nM (active)
Ki (SRSF protein kinase 1): 200 nM (active)
Ki [7]: 15.8 nM (active)
Ki [8]: 3160 nM (active)
Ki [9]: 251 nM (active)
Ki [10]: 251 nM (active)
Ki [11]: 1260 nM (active)
Ki [12]: > 7940 nM (inactive)
Ki [13]: > 10000 nM (inactive)
Ki [14]: > 100000 nM (inactive)
Ki [15]: > 5010 nM (inactive)
Ki [16]: > 1580 nM (inactive)
Ki [17]: > 10000 nM (inactive)
Ki [18]: 10 nM (active)
Ki [19]: > 3980 nM (inactive)
Compound: CS(=O)(=O)N(Cc1ccc2[nH]c(=O)c3cccn3c2c1)C1CC1

Compound: OCC[n+]1c2ccccc2nc2ccc(N3CCOCC3)cc21
AC50 [20]: 6780 nM (active)
